Legend:
[1] = system: SK-MEL-239 tumor cells; experiment: In vivo xenograft model using SK-MEL-239 cell; parameters: species or system mice
Procedure: The compounds of the present invention were evaluated in vivo using xenograft human cancer model in mice. The compounds of invention were administrated orally or interperitoneal injection. Tumor cell lines were cultured in vitro as monolayer culture. Using female BALB/c nude mice with immune system compromised, each mouse was inoculated subcutaneously at the right flank with tumor cells for tumor development. The treatment was started when the tumor size reaches approximately 100 mm^3
The SK-MEL-239 tumor cell line was maintained in vitro as monolayer in RPMII 640 medium supplemented with 10% heat inactivated fetal bovine serum, 100 U/ml penicillin and 100 μg/ml streptomycin, and L-glutamine (2 mM) at 37° C. in an atmosphere of 5% CO2 in air. The tumor cells were routinely subcultured twice weekly with 0.5% trypsin-EDTA treatment. The cells growing in an exponential growth phase were harvested and counted for tumor cell inoculation.
Female BALB/c nude mice aged 6-8 weeks and weighing approximately 18-22 g were purchased from Vital River. Each mouse was inoculated subcutaneously at the right flank with SK-MEL-239 tumor cells (1×10^7) in 0.1 ml of PBS for tumor development. The treatment was started, when the tumor size reaches approximately 100 mm^3. 100 mg/kg of Phenformin and 15 mg/kg of Vemurafenib were administered via oral gavage twice daily and 100 mg/kg HLPOI (HL176001001) was administered once daily for 21 days. Tumor volumes were measured twice a week in two dimensions using a caliper, and the volume was expressed in mm^3 using the formula: V=0.5×a×b^2, where a and b were the long and short diameters of the tumor, respectively. The T/C value (in percentage) was an indication of antitumor effect. T and C were the mean volumes of the treated and control groups, respectively.

[2] = system: A549 cells; experiment: In vitro combination study with Dasatinib on A549 cell; assay type: cell-based; settings: 0.05 μM of Dasatinib and 8 μM of Phenformin
Procedure: (§1) A549, H1975 (CRL5908, ATCC) or U937 cell (CRL1593.2™, ATCC) lines were cultured in RPMI 1640 media (Lifetechnologies, CA) with supplement of 10% FBS and antibiotic-antimycotic (Lifetechnologies, CA). Dasatinib (Combi-Blocks, San Diego, Calif.) is Bcr-Abl-tyrosine kinase inhibitor and Src family tyrosine kinase inhibitor approved for CML treatment. GDC094 (Selleckchem, Houston, Tex.) is a pan-PI3K inhibitor and effective in various cancer cells. H1975 or A549 cells were dissociated from culture plate using 0.5% trypsin-EDTA (Lifetechnologies, CA) and were suspended. U937 cells were spun down using centrifugation. […]
(§2) Among four concentrations of the compounds of present invention, the highest concentration was set to IC80 and the lowest concentration was approximately IC30. […] 100 μl of DMSO was added after removing MTT solution from each well, and were read by VICTOR X3 Multilabel Counter at the wavelength of 550 nm.
(§3) For the analysis of U937 cell viability, 20 μl of Celltiter96® AQueous one solution (MTS, Promega, Madison, Wis.) were added to each well, and plates were incubated at 37° C. and 5% CO2. After 2 hours later, plates read by VICTOR X3 Multilabel Counter at the wavelength of 490 nm. The combination index (CI value) was calculated using Calcusyn (Biosoft, UK).

[3] = system: SK-MEL-239 tumor cells; experiment: In vivo xenograft model using SK-MEL-239 cell; parameters: species or system mice; settings: Dosing 150/100 mg/kg, oral, twice daily
[4] = system: H1975 cell; experiment: In vitro combination study with Dasatinib on H1975 cell; assay type: cell-based; settings: 0.2 μM of Dasatinib, 8 μM or 40 μM of Example 1, 40 μM or 200 μM of Example 104
Procedure: as §1, §2, §3

[5] = Dosing 15 mg/kg, oral, twice daily, Day 28

[H]/N=C(/N)N/C(=N/[H])NCCc1ccccc1 [Phenformin, phenformin, reference compound]
tumor volume compared to the control group ([1]; 100 mg/kg, Phenformin twice daily, Example 1 once daily): significant reduction of tumor volume
tumor volume compared to the single administration of Vemurafenib ([1]; in combination with 15 mg/kg of Vemurafenib): did not show the significant reduction of tumor volume
synergic effect in combination with Dasatinib [2]: did not show the synergic effect
T/C (Day 28, %) [3]: 52.2%
Tumor Volume (Day 28, mm^3, a) [3]: 1,562 ± 166 mm^3

CCCS(=O)(=O)Nc1ccc(F)c(C(=O)c2c[nH]c3ncc(-c4ccc(Cl)cc4)cc23)c1F [Vemurafenib, reference compound]
T/C (Day 28, %) [1, 5]: 38.0%
Tumor Volume (Day 28, mm^3, a) [1, 5]: 1,144 ± 101 mm^3

Cl.N=C(N)NC(=N)NCCc1ccc(F)cc1 [Example 104, N-1-(4-fluoro)phenethylbiguanide hydrochloride]
combination therapy effect with Dasatinib [4]: low combination therapy effect

— patent publication US11465989B2, “Guanidine compounds and use thereof” (IMMUNOMET THERAPEUTICS INC., priority 2014, dated 2022)
